Assay results: patent publication US9456599B2, “Adjuvants” (SYNGENTA LIMITED, priority 2012, dated 2016)

How the values were obtained:
Type in all cases: in vivo
Septoria tritici [1] = assay: Septoria tritici on wheat, isopyrazam with compound E (Example 8); settings: wheat leaf area infected 12 days after spray; isopyrazam 3, 10, 30 and 100 mg/l, adjuvant 0.1% by volume; mean over four rates, four replicates
Method: Wheat plants were inoculated with the fungus Septoria tritici. Four days after inoculation the plants were sprayed with a diluted suspension concentrate formulation of the fungicide isopyrazam at rates of 3, 10, 30 and 100 mg of the fungicide per liter of spray solution, using a laboratory track sprayer which delivered the spray at a rate of 200 liters per hectare. Spray tests were also carried out with a diluted suspension concentrate additionally comprising the carbonate compound E (see Table 7) added to the spray solution at a rate of 0.1% v/v, based on the quantity of spray liquor. The leaves of the plants were assessed visually 12 days after the spray application and the damage was expressed as the percentage of the leaf area infected. Each spray test was replicated four times across the four application rates.
The results shown in Table 13 below are mean averages over the four rates of isopyrazam and the four replicates, and are compared to the efficacy of isopyrazam in the absence of an adjuvant, and isopyrazam in the presence of oleyl ethoxylate 20EO butyl end capped adjuvant used as a standard adjuvant for comparative purposes (at 0.1% by volume).

Septoria tritici [2] = assay: Septoria tritici on wheat, isopyrazam with B92-P-/B96-P-carbonate (Example 10); settings: wheat leaf area infected 14 days after spray; isopyrazam 3, 10, 30 and 100 mg/l, adjuvant 0.1% by volume; mean over four rates, twelve replicates
Method: Wheat plants were inoculated with the fungus Septoria tritici. Four days after inoculation the plants were sprayed with a diluted suspension concentrate formulation of the fungicide isopyrazam at rates of 3, 10, 30 and 100 mg of the fungicide per liter of spray solution, using a laboratory track sprayer which delivered the spray at a rate of 200 liters per hectare. Spray tests were also carried out with diluted suspension concentrates additionally comprising the carbonates B92-P-carbonate and B96-P-carbonate (see Table 1) which were added to the spray solution at a rate of 0.1% v/v, based on the quantity of spray liquor. The leaves of the plants were assessed visually 14 days after the spray application and the damage was expressed as the percentage of the leaf area infected. Each spray test was replicated twelve times across the four application rates.
The results shown in Table 15 below are mean averages over the four rates of isopyrazam and the twelve replicates, and are compared to the efficacy of isopyrazam in the absence of an adjuvant, and isopyrazam in the presence of oleyl ethoxylate 20EO butyl end capped which was used as a standard for comparative purposes (at 0.1% by volume).

Digitaria sanguinalis = assay: Glasshouse post-emergence spray test, mesotrione with adjuvant (Example 3); settings: mesotrione 30 or 60 g/ha, carbonate 0.2% or 0.5% Tween 20 + Rhodasurf DA/630-E; mean over two rates, three replicates, 14 and 21 days
Method: (§1) Brachiaria plantaginea, Digitaria sanguinalis, Commelina benghalensis and Polygonum convulvulus seeds were sown into standard soil in pots and cultivated under controlled conditions in a glasshouse (at 24/18° C. day/night; 16 hours light; 65% humidity).
(§2) When the plants were at the vegetative stage of 2-4 leaves they were sprayed with an aqueous spray solution containing the herbicide mesotrione and 0.2% v/v of one of the carbonates B92-P-Carbonate, B92-B-Carbonate and B96-P-Carbonate (see Table 1).
(§3) The spray solution was applied with a cabinet tracksprayer with a flat fan nozzle (Teejet 11002VS) and an application volume of 200 liter/ha (at 2 bar). Mesotrione was applied at either 30 or 60 grams of pesticide per hectare.
(§4) The test plants were then grown on, in a glasshouse under controlled conditions (at 24/18° C. day/night; 16 hours light; 65% humidity) and watered twice a day. After 14 and 21 days the test was evaluated for general crop injury (100% equals total damage to a plant; 0% equals no damage to a plant).
(§5) The results shown in Table 5 below are mean averages over the two rates of mesotrione, three replicates and the two assessment timings, and are compared to the efficacy of mesotrione in the absence of an adjuvant, and mesotrione in the presence of the commercially available tank-mix adjuvant, Tween 20 ®+Rhodasurf DA/630-E® (2:1 in water).

Brachiaria plantaginea = assay: as above; settings: mesotrione 30 or 60 g/ha, carbonate 0.2% or 0.5% Tween 20 + Rhodasurf DA/630-E; mean over two rates, three replicates, 14 and 21 days
Method: as §1, §2, §3, §4, §5

Polygonum convulvulus = assay: as above; settings: mesotrione 30 or 60 g/ha, carbonate 0.2% or 0.5% Tween 20 + Rhodasurf DA/630-E; mean over two rates, three replicates, 14 and 21 days
Method: as §1, §2, §3, §4, §5

Commelina benghalensis = assay: as above; settings: mesotrione 30 or 60 g/ha, carbonate 0.2% or 0.5% Tween 20 + Rhodasurf DA/630-E; mean over two rates, three replicates, 14 and 21 days
Method: as §1, §2, §3, §4, §5

[3] = test system: Brachiaria plantaginea, Digitaria sanguinalis, Commelina benghalensis and Polygonum convulvulus; assay: Glasshouse post-emergence spray test, mesotrione with adjuvant (Example 3), mean across species; settings: mesotrione 30 or 60 g/ha, carbonate 0.2% or 0.5% Tween 20 + Rhodasurf DA/630-E; 14 and 21 days; Tukey HSD letter
Method: as §1, §2, §3, §4, §5

[4] = test system: Brachiaria plantaginea, Digitaria sanguinalis, Commelina benghalensis and Polygonum convulvulus; assay: Glasshouse spray test, mesotrione with carbonates A-D (Example 6), mean over four plant species; settings: Table 10: mesotrione 30 or 60 g/ha, compounds A-D 0.2%, Tween + Rhodasurf 0.5%; 25 days; mean over rates, replicates, four species
Method: as §1
When the plants were at the vegetative stage of 2-4 leaves they were sprayed with an aqueous spray solution containing the herbicide mesotrione and 0.2% v/v of one of the carbonates A, B, C and D (see Table 7).
as §3
as §4, with “25” for “14 and 21”, “injury or phytotoxicity” for “injury”
as §5, with “10” for “5”, “mesotrione, the” for “mesotrione,”, “four plant species” for “two assessment timings,”, “(combined” for “(2:1”, “a 2:1 ratio) at 0.5% by volume.” for “water).”

Setaria viridis = assay: Glasshouse post-emergence spray test, pinoxaden with adjuvant (Example 4); settings: pinoxaden 7.5 or 15 g/ha, adjuvant 0.2%; mean over two rates, three replicates, 14 and 21 days
Method: (§6) Avena fatua, Lolium perenne, Setaria viridis and Alopecurus myosuroides seeds were sown into standard soil in pots and cultivated under controlled conditions in a glasshouse (at 20/16° C. day/night; 15 hours light; 65% humidity).
(§7) When the plants were at the vegetative stage of 2-3 leaves they were sprayed with an aqueous spray solution containing the herbicide pinoxaden and 0.2% v/v of one of the carbonates B92-P-Carbonate, B92-B-Carbonate and B96-P-Carbonate (see Table 1).
(§8) The spray solution was applied with a cabinet tracksprayer with a flat fan nozzle (Teejet 11002VS) and an application volume of 200 liter/ha (at 2 bar). Pinoxaden was applied at either 7.5 or 15 grams of pesticide per hectare. The test plants were then grown on in a glasshouse under controlled conditions (at 24/18° C. day/night; 16 hours light; 65% humidity) and watered twice a day. After 14 and 21 days the test was evaluated for general crop injury (100% equals total damage to a plant; 0% equals no damage to a plant).
The results shown in Table 6 below are mean averages over the two rates of pinoxaden, three replicates and the two assessment timings, and are compared to the efficacy of pinoxaden in the absence of an adjuvant, and pinoxaden in the presence of the tris(2-ethylhexyl)phosphate [TEHP, used as a standard, for comparative purposes] (at 0.2% by volume).

[5] = test system: Avena fatua, Lolium perenne, Setaria viridis and Alopecurus myosuroides; assay: Glasshouse spray test, pinoxaden with carbonates A-E (Example 7), mean over four plant species; settings: 22 days, mean over rates, replicates, four species
Method: as §6
When the plants were at the vegetative stage of 2-3 leaves they were sprayed with an aqueous spray solution containing the herbicide pinoxaden and 0.2% v/v of one of the carbonates A, B, C, D and E (see Table 7).
The spray solution was applied with a cabinet tracksprayer with a flat fan nozzle (Teejet 11002VS) and an application volume of 200 liter/ha (at 2 bar). Pinoxaden was applied at either 7.5 or 15 grams of pesticide per hectare.
as §4, with “on.” for “on,”, “22” for “14 and 21”, “injury or phytotoxicity” for “injury”
The results shown in Table 11 below are mean averages over the two rates of pinoxaden, the three replicates and the four plant species, and are compared to the efficacy of pinoxaden in the absence of an adjuvant, and pinoxaden in the presence of tris(2-ethylhexyl)phosphate, used as a standard adjuvant for comparative purposes (at 0.2% by […] volume).

Lolium perenne = assay: Glasshouse post-emergence spray test, pinoxaden with adjuvant (Example 4); settings: pinoxaden 7.5 or 15 g/ha, adjuvant 0.2%; mean over two rates, three replicates, 14 and 21 days
Description: as §7
as §8, with “The test plants were then grown on in a glasshouse under controlled conditions (at 24/18° C. day/night; 16 hours light; 65% humidity) and watered twice a day.” left out

Alopecurus myosuroides = assay: as above; settings: pinoxaden 7.5 or 15 g/ha, adjuvant 0.2%; mean over two rates, three replicates, 14 and 21 days
Description: as §7
as §8, with “The test plants were then grown on in a glasshouse under controlled conditions (at 24/18° C. day/night; 16 hours light; 65% humidity) and watered twice a day.” left out

Avena fatua = assay: as above; settings: pinoxaden 7.5 or 15 g/ha, adjuvant 0.2%; mean over two rates, three replicates, 14 and 21 days
Description: as §7
as §8, with “The test plants were then grown on in a glasshouse under controlled conditions (at 24/18° C. day/night; 16 hours light; 65% humidity) and watered twice a day.” left out

[6] = test system: Avena fatua, Lolium perenne, Setaria viridis and Alopecurus myosuroides; assay: Glasshouse post-emergence spray test, pinoxaden with adjuvant (Example 4), mean across species; settings: pinoxaden 7.5 or 15 g/ha, adjuvant 0.2%; 14 and 21 days; Tukey HSD letter
Description: as §7
as §8, with “The test plants were then grown on in a glasshouse under controlled conditions (at 24/18° C. day/night; 16 hours light; 65% humidity) and watered twice a day.” left out

## CC(C)C1C2CCC1c1c(NC(=O)c3cn(C)nc3C(F)F)cccc12 (stereo not drawn) [Isopyrazam]
Septoria tritici [1]
  Mean % infection: 65.1%
Septoria tritici [2]
  Mean % infection: 76.9%

## CS(=O)(=O)c1ccc(C(=O)C2C(=O)CCCC2=O)c([N+](=O)[O-])c1 [Mesotrione]
Digitaria sanguinalis
  Mean percentage kill DIGSA: 44.2%
Brachiaria plantaginea
  Mean percentage kill BRAPL: 1.7%
Polygonum convulvulus
  Mean percentage kill POLCONV: 70.8%
Commelina benghalensis
  Mean percentage kill COMBEN: 53.3%
[3]
  Mean percentage kill, Mean across species: 42.5 B %
[4]
  Mean % Phytotoxicity: 33.71%

## CCc1cc(C)cc(CC)c1-c1c(OC(=O)C(C)(C)C)n2n(c1=O)CCOCC2 [Pinoxaden]
Setaria viridis
  Mean percentage kill SETARIA VIRIDIS: 0%
[5]; Table 11: pinoxaden 7.5 or 15 g/ha, compounds A-D or tris(2-ethylhexyl)phosphate 0.2% by volume
  Mean % Phytotoxicity: 4.25%
[5]; Table 12: pinoxaden 7.5 or 15 g/ha, compound E or tris(2-ethylhexyl)phosphate 0.2% by volume
  Mean % Phytotoxicity: 0%
Lolium perenne
  Mean percentage kill LOLIUM PERENNE: 1.7%
Alopecurus myosuroides
  Mean percentage kill ALOPECURUS MYOSUROIDES: 0%
Avena fatua
  Mean percentage kill AVENA FATUA: 10.0%
[6]
  Mean percentage kill, Mean across species: 2.9 C %
